Measured values reported in article PMC5640650, “NatD promotes lung cancer progression by preventing histone H4 serine phosphorylation to activate Slug expression” (Nature Communications, 2017).

Assays:
Slug promoter = Slug promoter luciferase reporter assay, H1299 cells; assay type: cell-based, human; conditions: 1155-bp Slug promoter in pGL3-basic, beta-galactosidase normalized
Method: Response to the reviewers' comments:
Q1. In relation to Query 11 where Slug promoter analyses were requested to functionally test the consequences of epigenetic changes, the authors argue “it is less […]
promoter activity in cytoplasm where functional nucleosomes (composed of histone and DNA) are not formed”. I disagree with the authors’ response since it would invalidate all promoter assays performed in many different situations in which the action of “nuclear” transcription factors is analyzed with exogenous promoters that need to be translocated to the nucleus for functional activity. Thus, although I agree that the epigenetic changes might not be easily reproduced in the exogenous promoters, the authors should made the effort to perform this requested experimental […]
We agree with the reviewer that the experiment should be performed. Therefore, we cloned a 1155-bp Slug promoter fragment [Ref: Morita T et al., J Cell Biol. 2007, 179(5): 1027-1042] into the pGL3-basic luciferase vector (sequence confirmed by DNA sequencing). The activity of Slug promoter in the different situations (control […]
NatD) were analyzed; pSV-beta-Gal plasmid expressing beta-galactosidase was used as the normalization control according to Cold Spring Harbor Protocol [Smale ST.
Beta-galactosidase assay. Cold Spring Harb Protoc 2010: pdb prot5423]. As the […]

H1299 cells = test: qPCR and western blot of EMT and proliferation genes, H1299 cells; assay type: cell-based, human
Description: Fig. 4 Silencing NatD suppresses cancer cell EMT by downregulating Slug. a Representative phase contrast images of Scr and NatD-KD H1299 cells treated with TGF-β1. Data are representative of three independent experiments. Scale bar, 100 μm. b Quantitative real-time PCR analysis of mRNA levels of indicated key EMT-related genes in Scr and NatD-KD H1299 cells normalized to GAPDH in the absence or presence of TGF-β1. Results are shown as mean ± s.d. of three independent experiments. Two-tailed Student’s t-test was used. **P < 0.01 or *P < 0.05 compared with the indicated control. c Western blot analysis of indicated protein levels in Scr and NatD-KD H1299 cells in the absence or presence of TGF-β1. GAPDH served as a loading control. Data are representative of three independent experiments. d Immunofluorescence analysis of Scr and NatD-KD H1299 cells in the absence or presence of TGF-β1 stained for E-cadherin and N-cadherin. Data are representative of three independent experiments. Scale bar, 20 μm. Migration (e, top) and invasion (f, top) of Scr cells, NatD-KD cells, and NatD-KD cells with enforced Slug expression (NatD-KD + Slug). (bottom panels) Cells were counted in at least four random microscope fields (×100 magnification) for the corresponding assays; migration and invasion are expressed as a percentage of control. Results are shown as mean ± s.d. of three independent experiments. Two-tailed Student’s t-test was used. **P < 0.01 compared with the indicated control. g Quantitative real-time PCR analysis of the mRNA levels of NatD and indicated key EMT-related genes (normalized to GAPDH) in Scr cells, NatD-KD cells, and NatD-KD + Slug cells. Results are shown as mean ± s.d. of three independent experiments. Two-tailed Student’s t-test was used. **P < 0.01 or *P < 0.05 compared with Scr or indicated control. h Western blot analysis of indicated protein levels in Scr cells, NatD-KD cells, and NatD-KD + Slug cells. GAPDH served as a loading control. Data are representative of three independent blots. i Pearson correlation scatter plot of the H score of Slug and NatD in human lung carcinoma (n = 147); r = 0.6672, P < 0.0001
Cellular proteins were extracted by RIPA lysis buffer at high salt concentration (420 mM NaCl), and western blot analysis was performed in accordance with standard protocols. Scans of enhanced chemiluminescence (ECL) films showing uncropped blots are presented in Supplementary Fig. 10. The following antibodies were used for western blotting: NatD (Abcam; ab106408, 1:1000), GAPDH (MBL International; M171-3, 1:5000), Vimentin (BD Biosciences; 550513, 1:1000), E-cadherin (BD Biosciencs; 610181, 1:1000), N-cadherin (Abcam; ab76057, 1:1000), Slug (Abcam; ab27568, 1:500), Zeb1 (ABclonal; A5600, 1:1000), Zeb2 (Abcam; ab138222, 1:500), Twist1 (ABclonal; A7314, 1:1000), Snail (Santa Cruz Biotechnology; sc-271977, 1:500), Histone H4 (PTM Biolabs; PTM-1004, 1:2000), Histone H3(Genscript; A01502, 1:1000), H4K5ac (Millipore; CS204381, 1:1000), H4K8ac (Millipore; CS204357, 1:1000), H4K12ac (Millipore; 06-1352, 1:1000), H4R3me2a (Active Motif; 39705, 1:1000), H4R3me2s (Abcam; ab5823, 1:1000), H4S1ph (Abcam; ab14723, 1:1000), CK2α (Abcam; ab70774, 1:2000), Lamin A/C (Genscript; A01455, 1:2000), and Hsp70 (Genscript; A01236, 1:1000). Peptide pulldown assays were performed according to standard protocols, [44]. Briefly, we coupled streptavidin beads to 2 μg C-terminal biotin-tagged 31-mer N-terminal peptides of histone H4 and to acetylated H4 (Nt-ac-H4), as well as to C-terminal biotin-tagged 20-mer N-terminal peptides of non-acetylated histone H3. The resulting streptavidin-coupled peptides were incubated with H1299 cellular extracts prepared with high salt extraction (420 mM NaCl). We eluted specifically bound protein from stringently washed beads, separated the samples by SDS-PAGE, and visualized proteins by western blot with anti-CK2α antibody. […]

## NatD-KD2: Human NatD shRNA KD2: 5′-GGTTGAATGTCTCCATTGA-3′, lentiviral (shRNA lentiviral)
Slug promoter
  Slug promoter luciferase activity: no significant changes in luciferase activity
H1299 cells; basal, knockdown vs Scr
  expression of E-cadherin: increased the expression
  expression of N-cadherin and Vimentin: reduced the expression
  expression of Slug: significantly repressed
  expression of Twist1, Snail, Zeb1, or Zeb2: not changed
H1299 cells; presence of TGF-β1 relative to basal
  changes of E-cadherin, N-cadherin, Vimentin and Slug expression with TGF-β1: blocked changes of expression levels
H1299 cells; qPCR, vs Scr
  expression of proliferation- and cell cycle-related genes (except CCND2): did not affect
